Data on four molecules can be found in article PMC2653597 (Journal of chromatography. A, 2008).

The structures appear in SMILES notation.

Assay [1] deals with immobilized human recombinant butyrylcholinesterase (rBChE) (Homo sapiens, UniProt P06276). The experiment in a line: rBChE-IMER on-line carbamoylation/decarbamoylation kinetics. The following applies: immobilized enzyme, 30 °C, flow rate 1.0 mL/min. Format: biochemical.
Assay [2] deals with human recombinant BChE (rBChE) in solution (Homo sapiens, UniProt P06276). The experiment in a line: in solution stopped time assay for carbamoylation constants. In kind it is biochemical. The following applies: enzyme in solution, classical Ellman's assay. A general note: DTNB colorimetry detects thiols as they appear.
Sequence of human recombinant BChE (rBChE) in solution (P06276 29-602): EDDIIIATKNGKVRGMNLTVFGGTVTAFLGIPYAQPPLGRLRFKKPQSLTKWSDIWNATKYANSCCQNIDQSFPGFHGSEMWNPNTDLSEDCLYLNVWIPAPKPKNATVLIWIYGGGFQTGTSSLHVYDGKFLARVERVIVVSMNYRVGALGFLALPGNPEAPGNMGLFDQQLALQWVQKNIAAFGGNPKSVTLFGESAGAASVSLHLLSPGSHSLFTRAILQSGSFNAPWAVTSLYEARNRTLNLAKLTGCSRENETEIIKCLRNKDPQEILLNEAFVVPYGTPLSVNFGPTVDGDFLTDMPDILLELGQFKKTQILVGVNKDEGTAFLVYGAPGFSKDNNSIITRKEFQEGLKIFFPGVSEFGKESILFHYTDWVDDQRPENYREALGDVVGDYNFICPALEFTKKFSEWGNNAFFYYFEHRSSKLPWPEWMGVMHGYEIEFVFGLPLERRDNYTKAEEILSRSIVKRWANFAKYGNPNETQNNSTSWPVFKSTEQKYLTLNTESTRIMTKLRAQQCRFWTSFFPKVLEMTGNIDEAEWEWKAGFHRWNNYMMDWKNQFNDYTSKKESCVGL

Sequence of immobilized human recombinant butyrylcholinesterase (rBChE) (P06276 29-602): as above

For `CN1CC[C@@]2(C)c3cc(OC(=O)Nc4ccccc4)ccc3N(C)[C@@H]12` [(-)-Phenserine, 3aS-(-)-phenylcarbamoyleseroline], the “carbamoylation constant k2, rBChE-IMER” value in assay [1] came to 0.486 ± 0.037 min⁻¹. Moreover, the “carbamoylation constant k2, rBChE in solution” value in assay [2] came out at 3.094 ± 0.536 min⁻¹.

In the case of `CNC(=O)Oc1ccc2c(c1)[C@]1(C)CCN(C)[C@@H]1N2C` [(-)-Physostigmine, (-)-physostigmine, reference compound], the “carbamoylation constant k2, rBChE-IMER” value in assay [1] is 0.161 ± 0.025 min⁻¹. Also, in assay [2], the “carbamoylation constant k2, rBChE in solution” value was determined as 0.479 ± 0.070 min⁻¹.

Take `CC(C)c1ccc(NC(=O)Oc2ccc3c(c2)[C@]2(C)CCN[C@@H]2N3)cc1` [(-)-Bisnorcymserine]: the “carbamoylation constant k2, rBChE-IMER” value in assay [1] came out at 0.081 ± 0.004 min⁻¹. Moreover, the “carbamoylation constant k2, rBChE in solution” value in assay [2] came out at 0.573 ± 0.068 min⁻¹.

As for `CC(C)Cc1ccc(NC(=O)Oc2ccc3c(c2)[C@]2(C)CCN[C@@H]2N3)cc1` [(-)-Isobutylbisnorcymserine], the “carbamoylation constant k2, rBChE-IMER” value in assay [1] was 0.049 ± 0.002 min⁻¹. The “carbamoylation constant k2, rBChE in solution” value in assay [2] amounted to 0.634 ± 0.022 min⁻¹.
